Reference: US20190134115A1, “Activated Lactobacillus Reuteri Strains for Selective Pathogen Inhibition in a Human Microbial Community” (BioGaia AB, priority 2016, published 2019)
Converted amounts (≈) assume the structure as drawn. Where two headings read alike, the source gives them in different places.

Legend:
L. casei LC-39 = assay: Antibiotic susceptibility testing, broth microdilution MIC; type: cell-based; settings: for MIC: Lacticaseibacillus casei; for MIC / Minimum inhibitory concentration: MRS, anaerobic, 24 h, ≥90% reduction in growth
Procedure: (§1) Antibiotic Susceptibility Testing. Susceptibility of Lactobacillus spp. to antibiotics was determined using standard broth microdilution procedures (24). […] Plates were incubated anaerobically at 37° C. for 24 h. Optical density measurements (600 nm) were recorded using a Synergy™ H1 Hybrid Multi-Mode Microplate Reader (BioTek Instruments, Inc, Winooski, Vt.). […] Significance was determined using student's t test with equal variance.

L. rhamnosus LR-34 = assay: as above; type: cell-based; settings: for MIC: Lacticaseibacillus rhamnosus; for MIC / Minimum inhibitory concentration: MRS, anaerobic, 24 h, ≥90% reduction in growth
Procedure: as §1

L. gasseri LG-3 = assay: as above; type: cell-based; settings: for MIC: Lactobacillus gasseri, read-out: Minimum inhibitory concentration
Procedure: (§2) Antibiotic Susceptibility Testing. Susceptibility of Lactobacillus spp. to antibiotics was determined using standard broth microdilution procedures (24). […] Plates were incubated anaerobically at 37° C. for 24 h. Optical density measurements (600 nm) were recorded using a Synergy™ H1 Hybrid Multi-Mode Microplate Reader (BioTek Instruments, Inc, Winooski, Vt.). Results were compared to a growth control (lactobacilli only), and the minimum inhibitory concentration (MIC) endpoint was the concentration of antibiotic where ≥90% reduction in growth was observed. Significance was determined using student's t test with equal variance.

L. reuteri 17938 = assay: as above; type: cell-based; settings: read-out: Minimum inhibitory concentration
Procedure: as §2

L. reuteri 6475 = assay: as above; type: cell-based; settings: read-out: Minimum inhibitory concentration
Procedure: as §2

C. difficile R20291 = settings: C. difficile R20291, CDI patient stool; cited from earlier work
[1] = test system: C. difficile-associated diarrheal isolates; settings: cited from earlier work
C. difficile CD2015 = assay: C. difficile invasion of antibiotic-treated human fecal mini-bioreactor arrays (MBRA), qPCR; type: cell-based; settings: clindamycin-treated MBRA, increase not statistically significant
Procedure: Mini-bioreactor array (MBRA) preparation, operation and sample collection. Effects of reuterin on C. difficile growth in a human fecal microbial community were tested in MBRAs. Replicate MBRAs (twelve independent 15-mL reactors) and bioreactor medium (BRM2) were prepared as previously described (26). Reactors were inoculated with an anaerobic preparation of a 25% fecal slurry from an anonymous healthy donor (5% w/v final concentration) and were operated in an anaerobic chamber with 5% H2, 5% CO2, 90% N2 atmosphere. After 16 h of outgrowth in batch culture mode, continuous-flow cultivation was initiated at a flow rate of 0.94 ml/h (16 h retention time). After 36 h of flow, reactor communities were treated twice daily with clindamycin (500 mg/L final concentration) for 4.5 days. Reactors were transitioned to fresh medium on day 4 of clindamycin treatment, with 6 reactors receiving standard BRM2 medium and 6 reactors receiving BRM2 supplemented with glycerol (10% v/v final concentration). […]
Samples (1 ml) were collected from each MBRA as described (27) prior to the initiation of continuous flow and then daily through the duration of the experiment. […] Microbial community and metabolite analysis, and quantification of C. difficile levels by quantitative PCR (qPCR) were performed as described below. […]
Quantification of C. difficile by qPCR. […]

[2] = LC39, L. casei LC-39, read-out: Minimum inhibitory concentration
[3] = LR34, L. rhamnosus LR-34, read-out: Minimum inhibitory concentration
[4] = LG3, L. gasseri LG-3, MRS, anaerobic, 24 h, ≥90% reduction in growth
[5] = Limosilactobacillus reuteri, L. reuteri 17938, MRS, anaerobic, 24 h, ≥90% reduction in growth
[6] = Limosilactobacillus reuteri, 6475, 24 h

**Q.** With `CCc1c(Cl)c(O)c(Cl)c(O)c1C(=O)O[C@H]1[C@H](O)[C@H](OC)[C@H](OC/C2=C\C=C\C[C@H](O)/C(C)=C/[C@H](CC)[C@@H](O[C@@H]3OC(C)(C)[C@@H](OC(=O)C(C)C)[C@H](O)[C@@H]3O)/C(C)=C/C(C)=C/C[C@@H]([C@@H](C)O)OC2=O)O[C@@H]1C` [Fidaxomycin, fidaxomicin] as the compound, how does the “MIC relative to the MIC90 for C. difficile” value (L. casei LC-39; L. casei LC-39, fold greater) read?
**A.** The value was 4 fold.

**Q.** And the MIC (L. casei LC-39; [2])?
**A.** The MIC was 2 µg/mL.

**Q.** And the “MIC relative to the MIC90 for C. difficile” value (L. rhamnosus LR-34; L. rhamnosus LR-34, fold greater)?
**A.** The value was 4 fold.

**Q.** What about the MIC (L. rhamnosus LR-34; [3]) of the same compound?
**A.** The MIC was 2 µg/mL.

**Q.** What about the MIC (L. gasseri LG-3; [4]) of the same compound?
**A.** Its MIC is 2 µg/mL.

**Q.** And the MIC (L. reuteri 17938; [5])?
**A.** Its MIC is > 32 µg/mL.

**Q.** And the MIC (L. reuteri 6475; Limosilactobacillus reuteri, L. reuteri 6475, MRS, anaerobic, 24 h, ≥90% reduction in growth)?
**A.** Its MIC is > 32 µg/mL.

**Q.** And the Minimum inhibitory concentration (C. difficile R20291)?
**A.** The Minimum inhibitory concentration was 0.5 µg/mL (≈ 0.473 µM).

**Q.** And the MIC90 [1]?
**A.** The MIC90 was 0.5 µg/mL (≈ 0.473 µM).

**Q.** For `Cc1ncc([N+](=O)[O-])n1CCO` [Metronidazole, metronidazole], which Minimum inhibitory concentration (L. casei LC-39; L. casei LC-39) is on record?
**A.** The Minimum inhibitory concentration was >256 µg/mL.

**Q.** And the MIC (L. casei LC-39; [2])?
**A.** Its MIC is > 256 µg/mL.

**Q.** What about the Minimum inhibitory concentration (L. rhamnosus LR-34; L. rhamnosus LR-34) of the same compound?
**A.** The Minimum inhibitory concentration was >256 µg/mL.

**Q.** And the MIC (L. rhamnosus LR-34; [3])?
**A.** The MIC was > 256 µg/mL.

**Q.** What about the Minimum inhibitory concentration (L. gasseri LG-3; L. gasseri LG-3, MRS, anaerobic, 24 h, ≥90% reduction in growth) of the same compound?
**A.** The Minimum inhibitory concentration was >256 µg/mL.

**Q.** And the MIC (L. gasseri LG-3; [4])?
**A.** The MIC was > 256 µg/mL.

**Q.** And the MIC (L. reuteri 17938; [5])?
**A.** The MIC was > 256 µg/mL.

**Q.** And the MIC (L. reuteri 6475; [6])?
**A.** The MIC was 128 µg/mL.

**Q.** What about the Minimum inhibitory concentration (C. difficile R20291) of the same compound?
**A.** Its Minimum inhibitory concentration is 2 µg/mL (≈ 11.7 µM).

**Q.** And the MIC90 [1]?
**A.** Its MIC90 is 2 µg/mL (≈ 11.7 µM).

**Q.** For `CN[C@H](CC(C)C)C(=O)N[C@H]1C(=O)N[C@@H](CC(N)=O)C(=O)N[C@H]2C(=O)N[C@H]3C(=O)N[C@H](C(=O)N[C@H](C(=O)O)c4cc(O)cc(O)c4-c4cc3ccc4O)[C@H](O)c3ccc(c(Cl)c3)Oc3cc2cc(c3O[C@@H]2O[C@H](CO)[C@@H](O)[C@H](O)[C@H]2O[C@H]2C[C@](C)(N)[C@H](O)[C@H](C)O2)Oc2ccc(cc2Cl)[C@H]1O` [Vancomycin, vancomycin], which Minimum inhibitory concentration (L. casei LC-39; L. casei LC-39) is on record?
**A.** Its Minimum inhibitory concentration is 256 µg/mL.

**Q.** What about the MIC (L. casei LC-39; LC39, 24 h, read-out: Minimum inhibitory concentration, L. casei LC-39) of the same compound?
**A.** The MIC was > 256 µg/mL.

**Q.** And the Minimum inhibitory concentration (L. rhamnosus LR-34; L. rhamnosus LR-34)?
**A.** Its Minimum inhibitory concentration is 256 µg/mL.

**Q.** And the MIC (L. rhamnosus LR-34; LR34, 24 h, read-out: Minimum inhibitory concentration, L. rhamnosus LR-34)?
**A.** The MIC was > 256 µg/mL.

**Q.** And the MIC (L. gasseri LG-3; LG3, 24 h)?
**A.** The MIC was 1 µg/mL.

**Q.** What about the MIC (L. reuteri 17938; Limosilactobacillus reuteri, 17938, 24 h) of the same compound?
**A.** The MIC was 256 µg/mL.

**Q.** What about the MIC (L. reuteri 6475; [6]) of the same compound?
**A.** The MIC was 256 µg/mL.

**Q.** What about the Minimum inhibitory concentration (C. difficile R20291) of the same compound?
**A.** Its Minimum inhibitory concentration is 4 µg/mL (≈ 2.76 µM).

**Q.** What about the MIC90 [1] of the same compound?
**A.** The MIC90 was 4 µg/mL (≈ 2.76 µM).

**Q.** For `OCC(O)CO` [glycerol], which “C. difficile concentrations, fold greater than controls” value (C. difficile CD2015) is on record?
**A.** The value was ~10 fold.
